The values below come from PubChem BioAssay AID844 (SRMLSC, 2007).

Structures are written as SMILES. Active and inactive are the calls of the source. The rule behind the calls is not given here.

The subject of this test is MRP1 cells, doxorubicin viability shift, 10 uM compound. As to the kind of experiment: doxorubicin EC50 increase in MRP-1 cells, dose response, cell-based, doxorubicin EC50 shift (AID 844). To be noted: for EC50: measured here: doxorubicin EC50 with compound.

For the compound `COc1ccc(Nc2nnc(Cc3ccc(Cl)cc3)c(=O)[nH]2)c(OC)c1`, the fold increase in Dox EC50 is 0.91 (inactive) and the EC50 is 4.93 µM.

As for `O=C(Cc1ccccc1)Nc1ccccc1Oc1ccccc1`, the fold increase in Dox EC50 is 0.69 (inactive) and the EC50 was found to be 3.71 µM.

As for `CCCCNc1oc(-c2ccc(OC)cc2)nc1S(=O)(=O)c1ccccc1`, the fold increase in Dox EC50 is 0.72 (inactive) and the EC50 was 3.87 µM.

Turning to `O=C(COc1cccnc1[N+](=O)[O-])Nc1ccc2c(c1)OC(F)(F)O2`, the fold increase in Dox EC50 was 0.7 (inactive) and the EC50 is 3.8 µM.

Consider `Cc1ccc2nc(NC(=O)CCNS(=O)(=O)c3cccs3)sc2c1`, for which the fold increase in Dox EC50 is 0.56 (inactive) and the EC50 stood at 3 µM.

In the case of `CC1(C)O[C@@H]2C[C@H]3[C@@H]4C[C@H](F)C5=CC(=O)CC[C@]5(C)[C@H]4[C@@H](O)C[C@]3(C)[C@]2(C(=O)CO)O1`, the fold increase in Dox EC50 was 0.65 (inactive) and the EC50 is 3.52 µM.

For `CCOC(=O)c1c(NC(=O)CSc2ncn[nH]2)sc(C)c1C`, the fold increase in Dox EC50 is 0.32 (inactive) and the EC50 was 1.74 µM.

On to `C=CCOc1c(CNc2ccc(C(=O)O)cc2)cccc1OCC`, for which the fold increase in Dox EC50 was 0.59 (inactive) and the EC50 worked out at 3.21 µM.

`Cc1sc2nc(C3CC3)nc(N3CCN(S(=O)(=O)c4ccc(F)cc4)CC3)c2c1C`: the fold increase in Dox EC50 was 0.3 (inactive) and the 50% effective concentration (EC50) was found to be 1.63 µM.

For `CN(C)C(=O)Oc1ccc(OC(=O)c2ccccc2)cc1`, the fold increase in Dox EC50 is 1.17 (inactive) and the EC50 is 6.32 µM.

For `Cc1ccc(NC(=O)CSc2nc(O)cc(=O)n2C)cc1`, the fold increase in Dox EC50 is 1.34 (inactive) and the EC50 is 7.25 µM.

For the compound `CCC(C)c1ccc(O)c(NC(=O)c2ncn[nH]2)c1` (stereo not drawn), the fold increase in Dox EC50 is 0.97 (inactive) and the EC50 stood at 5.25 µM.

Turning to `CC1(C)CC(=O)C2=C(C1)N=C1SCCC(=O)N1C2c1ccc(C(F)(F)F)cc1` (stereo not drawn), the fold increase in Dox EC50 is 1.21 (inactive) and the EC50 amounted to 6.51 µM.

In the case of `CCOc1ccccc1C(=O)OCC(=O)Nc1ccc(OC(F)F)cc1`, the fold increase in Dox EC50 is 0.93 (inactive) and the EC50 is 5.04 µM.

For the compound `Cn1nccc1CNC(=O)c1ccnn1C`, the fold increase in Dox EC50 was 0.66 (inactive) and the EC50 was 3.56 µM.

As to `O=c1[nH]c(C2CCCN(S(=O)(=O)c3ccccc3)C2)nc2c1nnn2Cc1ccccc1` (stereo not drawn), the fold increase in Dox EC50 was 0.11 (inactive) and the EC50 stood at 0.603 µM.

On to `Cc1ccnc(NC(=O)COc2ccc3oc4c(c3c2)CCCC4)c1`, for which the fold increase in Dox EC50 was 0.78 (inactive) and the EC50 stood at 4.21 µM.

On to `Cc1cc(/C=C2\SC(=S)NC2=O)c(C)n1C`, for which the fold increase in Dox EC50 was 1.44 (inactive) and the EC50 is 7.78 µM.

Take `O=C(COc1ccc(Br)cc1)N1CCN(C2CCCC2)CC1`: the fold increase in Dox EC50 is 1.08 (inactive) and the EC50 is 5.85 µM.

Take `O=C(NCC(F)(F)F)Nc1nnc(C(F)(F)F)s1`: the fold increase in Dox EC50 was 1.54 and the EC50 amounted to 8.33 µM.

With `N#Cc1c(-c2ccccc2)nc(SCC(=O)Nc2ccccc2F)[nH]c1=O`, the fold increase in Dox EC50 is 1.79 and the EC50 came out at 9.66 µM.

For `Brc1cc2c(cc1COc1ccc(-c3nn[nH]n3)cc1)OCO2`, the fold increase in Dox EC50 was 1.73 and the EC50 was 9.31 µM.

Regarding `Cc1cccc(NC(=O)CC2SC(=O)N(c3ccccc3)C2=O)c1` (stereo not drawn), the fold increase in Dox EC50 is 0.95 (inactive) and the EC50 is 5.15 µM.

On to `Cc1ccc(NC(=O)CNC(=O)c2cccs2)cc1S(=O)(=O)Nc1ccc(Cl)cc1`, for which the fold increase in Dox EC50 is 1.11 (inactive) and the EC50 was 5.97 µM.

For `O=C(NCCc1ccc(Cl)cc1)c1cnc2n(c1=O)CCS2`, the fold increase in Dox EC50 was 0.66 (inactive) and the EC50 was 3.55 µM.

Regarding `CCOC(=O)c1c(-c2cccs2)csc1NC(=O)CSc1ncn[nH]1`, the fold increase in Dox EC50 is 0.2 (inactive) and the EC50 turned out to be 1.09 µM.

As for `Cc1nc(=O)c(-c2ccccc2)c(C)n1-c1cccc(C(=O)O)c1`, the fold increase in Dox EC50 was 1.26 (inactive) and the EC50 amounted to 6.82 µM.

Take `CSC1=NCCN1C(=O)Cc1ccc(Cl)cc1`: the fold increase in Dox EC50 is 1.04 (inactive) and the half-maximal effective concentration (EC50) was 5.6 µM.

In the case of `Cc1ccc(/C=C2\SC(=S)N(c3c(C)n(C)n(-c4ccccc4)c3=O)C2=O)cc1`, the fold increase in Dox EC50 was 0.97 (inactive) and the EC50 was 5.23 µM.

Regarding `COc1ccccc1NS(=O)(=O)c1cc(NC(=O)/C=C/c2cccs2)ccc1N1CCOCC1`, the fold increase in Dox EC50 is 0.81 (inactive) and the half-maximal effective concentration (EC50) worked out at 4.36 µM.

`Cc1ccc(CCNC(=O)C2CCCN2S(=O)(=O)c2ccc3c(c2)CCC(=O)N3)cc1` (stereo not drawn): the fold increase in Dox EC50 is 0.64 (inactive) and the EC50 was found to be 3.46 µM.

`COCC(=O)Nc1nnc(COc2ccc(Cl)cc2)s1`: the fold increase in Dox EC50 is 1.44 (inactive) and the EC50 turned out to be 7.75 µM.

For the compound `COC(=O)/C(=C/Nc1ccc(O)cc1)[N+](=O)[O-]`, the fold increase in Dox EC50 was 0.21 (inactive) and the EC50 turned out to be 1.12 µM.

As for `COc1ccc(CN=C2NC(=O)CC(C(=O)Nc3ccc(F)cc3)S2)cc1` (stereo not drawn), the fold increase in Dox EC50 is 1.01 (inactive) and the EC50 came to 5.47 µM.

For the compound `COc1ccccc1N1CCN(C(=O)COc2ccc(Cl)cc2)CC1`, the fold increase in Dox EC50 is 0.8 (inactive) and the EC50 worked out at 4.32 µM.

On to `COc1ccc(Cn2c(O)c(C=Nc3ccc(OC)cc3)c3ccccc3c2=O)cc1`, for which the fold increase in Dox EC50 was 1.34 (inactive) and the EC50 was determined as 7.24 µM.

As for `O=C(Nc1ccc(C2CC2(Cl)Cl)cc1)c1ccccc1Br` (stereo not drawn), the fold increase in Dox EC50 is 1.6 and the EC50 came to 8.66 µM.

With `CCOC(=O)c1sc2nc3n(c(=O)c2c1C)CCCCC3`, the fold increase in Dox EC50 was 0.52 (inactive) and the EC50 was 2.81 µM.

For `CCC(=O)N1CCN=C1SCc1ccccc1`, the fold increase in Dox EC50 was 0.74 (inactive) and the EC50 amounted to 3.98 µM.

Regarding `CC(/C=N/NC(=O)c1nn(C)c(C)c1Br)=C\c1ccccc1`, the fold increase in Dox EC50 was 1.25 (inactive) and the EC50 stood at 6.72 µM.

In the case of `CCOC(=O)/C=C1\SCC(=O)N1CCOc1cccc(Br)c1`, the fold increase in Dox EC50 was 1.2 (inactive) and the EC50 came out at 6.5 µM.

With `COC(=O)C1C(=O)c2c([nH]c(C(=O)OC3CCCCC3)c2C)CC1C` (stereo not drawn), the fold increase in Dox EC50 is 0.69 (inactive) and the concentration for a half-maximal effect (EC50) turned out to be 3.74 µM.

`CCCCCCn1c(O)c(/C=C2\C=NN=C2c2ccccc2)sc1=S`: the fold increase in Dox EC50 was 0.77 (inactive) and the concentration for a half-maximal effect (EC50) came out at 4.16 µM.

Consider `O=C(NCCc1ccccc1)C(=O)c1c(-c2ccccc2)cc2ccccn12`, for which the fold increase in Dox EC50 is 1.08 (inactive) and the EC50 came out at 5.84 µM.

Regarding `Cc1cc(C)n(-c2nc3ccccc3nc2Nc2ccc3c(c2)OCO3)n1`, the fold increase in Dox EC50 is 0.75 (inactive) and the EC50 stood at 4.02 µM.

As to `CCNc1oc(-c2cccc3ccccc23)nc1C#N`, the fold increase in Dox EC50 was 0.68 (inactive) and the EC50 is 3.68 µM.

`CCOc1ccc(C2CC(c3ccc(F)cc3)Nc3nc(N)nn32)cc1` (stereo not drawn): the fold increase in Dox EC50 was 0.55 (inactive) and the EC50 came to 2.95 µM.

For `COc1ccc(NC(=O)c2c(F)cccc2F)cc1S(=O)(=O)Nc1ccc(Br)cc1`, the fold increase in Dox EC50 is 0.71 (inactive) and the EC50 was 3.86 µM.

As for `Cc1nnc(NC(=O)C(C)Sc2nncn2C)s1` (stereo not drawn), the fold increase in Dox EC50 is 0.77 (inactive) and the EC50 was 4.15 µM.

For the compound `O=C(CN1C(=O)/C(=C/c2ccccc2)SC1=S)Nc1ncc(Cc2ccccc2)s1`, the fold increase in Dox EC50 is 1.49 (inactive) and the EC50 is 8.03 µM.

As for `Cc1ccc(/C=C2\SC(=S)N(CCCC(=O)Nc3nccs3)C2=O)cc1`, the fold increase in Dox EC50 was 0.3 (inactive) and the concentration giving a half-maximal response (EC50) worked out at 1.64 µM.

For the compound `CCN(CC)S(=O)(=O)c1cccc(NC(=O)CCSc2ccc(Cl)cc2)c1`, the fold increase in Dox EC50 was 0.89 (inactive) and the EC50 worked out at 4.81 µM.

Take `O=C(Nc1ccc(O)cc1)C1CCCO1` (stereo not drawn): the fold increase in Dox EC50 was 0.91 (inactive) and the concentration for a half-maximal effect (EC50) came to 4.92 µM.

For the compound `CCOC(=O)c1cc(-c2ccccc2)sc1NC(=O)C(C)Sc1nnc(C)s1` (stereo not drawn), the fold increase in Dox EC50 was 0.53 (inactive) and the EC50 is 2.87 µM.

For the compound `Cc1cc(C)c(N=Cc2c(O)n(-c3nccs3)c(=O)c3ccccc23)c(C)c1`, the fold increase in Dox EC50 is 0.29 (inactive) and the concentration giving a half-maximal response (EC50) was 1.54 µM.

On to `Cc1ccc(C2CC(C(F)(F)F)n3nc(C(=O)NCc4c(C)nn(C)c4C)c(Cl)c3N2)cc1` (stereo not drawn), for which the fold increase in Dox EC50 was 1.13 (inactive) and the EC50 amounted to 6.1 µM.

`COc1ccc(Cc2nnc(NC(=O)c3c(-c4ccccc4)noc3C)s2)cc1OC`: the fold increase in Dox EC50 was 0.52 (inactive) and the EC50 stood at 2.79 µM.

Turning to `Cc1ccc2nc3c(cc2c1)CC1(C(=O)N(C)C(=O)N(C)C1=O)C1CCCCN31` (stereo not drawn), the fold increase in Dox EC50 is 0.59 (inactive) and the EC50 amounted to 3.21 µM.

On to `Cc1nc2c(ccc3nc(NC(=O)C(c4ccccc4)c4ccccc4)sc32)s1`, for which the fold increase in Dox EC50 was 0.84 (inactive) and the EC50 is 4.51 µM.

Take `O=C(CC(c1ccccc1)c1ccccc1)Nc1ncn[nH]1`: the fold increase in Dox EC50 was 0.75 (inactive) and the EC50 is 4.03 µM.

Consider `COc1ccc(C(=O)NCc2ccc(-c3nc4ccccc4s3)cc2)cc1`, for which the fold increase in Dox EC50 is 1.57 and the half-maximal effective concentration (EC50) stood at 8.47 µM.

On to `COc1ccc([N+](=O)[O-])cc1NC(=O)COC(=O)/C=C/c1ccco1`, for which the fold increase in Dox EC50 is 0.99 (inactive) and the EC50 is 5.32 µM.

On to `NC1=NC(=O)/C(=C/c2cn(CCC(=O)O)nc2-c2ccc(Cl)cc2)S1`, for which the fold increase in Dox EC50 is 0.93 (inactive) and the EC50 was determined as 5.01 µM.

For the compound `CCc1nn2c(N)c(/C=C3\C=Nc4ccccc43)c(=O)nc2s1`, the fold increase in Dox EC50 was 1.43 (inactive) and the EC50 stood at 7.74 µM.
